Source: patent US20100222289A1, “METHODS FOR DIAGNOSIS AND TREATMENT OF CHRONIC FATIGUE SYNDROME” (CFS Research LLC, priority 2007, published 2010)

Columns and labels:
HCMV [1] = conditions: versus HCMV; read-out: 50% inhibitory concentration; cited from earlier work
[2] = high dose repetitive human studies; cited from earlier work
HCMV-EBV subset CFS = test: Example 1: subset directed antiviral therapy of HCMV-EBV CFS patients; format: in vivo, human; conditions: for clinical outcome: 10 CFS patients, treated according to subset for mean 2.6±0.4 years; for side effects: mean 2.6±0.4 years treatment
Method: Ten patients with chronic fatigue syndrome (CFS) of 1.3-2.6 years duration had elevated serum antibody titers to cytomegalovirus (HCMV), and 9 of these patients also had elevated serum antibody titers to Epstein-Barr virus (EBV). They were classified: HCMV-EBV subset (nine patients) and HCMV subset (one patient) CFS. We determined whether subset classification is required for successful antiviral therapy of CFS.
CFS patients with elevated serum antibody titers to HCMV and EBV were treated with valganciclovir (HCMV) and valacyclovir (EBV) according to subset classification for a mean of 2.6±0.4 years. […] Five patients continue no antiviral drug, and five patients require continuing antiviral suppressive therapy. […] Subset directed antiviral therapy leads to sustained recovery in CFS patients.

[3] = parameters: species or system human; conditions: in vivo
Method: Toxicity of Antiviral Nucleosides Patients were seen every 4 to 6 weeks, EIPS was recorded and complete blood count, aminotransferases, creatinine and urinalyses were done. Also recorded were abnormalities in white blood cells and platelet counts, aminotransferases, weight gain or loss, whether famciclovir was substituted for valacyclovir, dosage change for valganciclovir, valacyclovir, or famciclovir, and whether any of the following occurred: participation in blinded-placebo-controlled study, hospitalization, surgery, recovery, a cessation of medicines by patient choice, cessation of medicines by physician choice, relapse with worsening EIPS and returned for care.

[4] = system: Group A herpesvirus CFS (EBV, HCMV, HHV6); test: Example 4: Energy Index Point Score (EIPS) in Group A herpesvirus CFS patients on antiviral nucleosides; format: in vivo, human
Text: Background and Patient Population The international criteria for diagnosis of CFS was used. With strict confidentiality clinical files of CFS patients were identified by number only. A blinded code was maintained. Data were entered to the Axel computer system and analyzed anonymously. Patients with active EBV infection were identified by the presence of elevated serum ELISA antibodies to Epstein-Barr virus (EBV) IgM viral capsid antigen p18 peptide (Diasorin Inc., Stillwater, Minn.) and/or EBV, Early antigen (diffuse) 47 KD recombinant peptide (Diasorin, Stillwater, Minn.). Patients with active HCMV infection were identified by the presence of HCMV strain AD69 human fibroblast lysate, IgM and IgG ELISA and Copalis light-scatter, HCMV IgM p52 recombinant protein, UL44 and HCMV CM2, UL44 and part UL57 recombinant protein. Elevated IgM and IgG Human Herpesvirus 6 serum antibody titers ≧160 (LabCorp, Dublin, Ohio) were recorded. CFS patients had 24-Hr ECG Holter monitor recordings. When abnormal resting standard ECG and abnormal recurrent oscillating T-waves (flat, inverted) were present at baseline, radionuclide ventriculography by bicycle protocol stress studies were performed. The CFS patients reported here are termed Group A. They had negative IgM, IgG serum antibody titers to Borrelia burgdorferi, Western blot and ELISA; anti-streptolysin 0 titers <200 units; and negative serum IgM and IgG antibody titers to both Ehrlichia chaffeensis and Babesia microti (LabCorp).
Measurement of Degree of Fatigue (Physical Capacity) The Energy Index Point Score (EIPS) is a reliable validated metric assessing the degree of illness of CFS patients. With an EIPS scoring scale for reference on the wall in each examining room, the EIPS was determined by consensus of physician and patient. An EIPS of “0” is a bedridden patient. Patients were seen every 4-6 weeks and EIPS recorded. If an intercurrent illness was present EIPS determinations were delayed for 2 weeks. An EIPS of between 0 and 5 is associated with the presence of CFS. At an EIPS of between 6 and 10, the patient no longer meets criteria for diagnosis of CFS. A change in EIPS of 0.25 is small, a 0.5 change in EIPS is a medium change, and an EIPS change of ≧0.8 is a large effect size (p<0.05).
Valacyclovir and Famciclovir Administration to CFS patients with EBV infection Valacyclovir and famciclovir are pro-drugs well absorbed orally and, after reaching the circulation as acyclovir or penciclovir, respectively, inhibit EBV thymidine kinase efficiently. […]. Here, valacyclovir was the agent of first choice, but when diarrheas to valacyclovir developed, famciclovir was substituted. […]. If the patient weighed over 79.5 Kg, 1500 mg valacyclovir was given at each dose. Valacyclovir is excreted by the kidney by both glomerular filtration and tubular secretion. Valacyclovir renal calculi may result, and patients were advised to drink at least 1500 ml water daily. […]. Valacyclovir, once absorbed orally, is acyclovir in serum.
CFS patients were given valganciclovir. Cautiously beginning, 450 mg daily was administered every morning after a meal for three days, and then increasing dosage to two doses of 450 mg, every morning for three days. They were then given two doses of 450 mg valganciclovir every morning followed by one 12 hours later as a continuing dosage. […] If the patient weighed over 90.0 Kg, 900 mg valganciclovir every 12 hours was given. Dosage was evaluated every 2-6 weeks for ongoing tolerance with normal values of hemograms, platelets and amino transferases and creatinines.

HHV6 [5] = conditions: cited from earlier work
[6] = cited from earlier work
EBV CFS subset = test: Example 3: valacyclovir in EBV subset CFS, placebo-controlled trial and 36 month follow-up; format: in vivo, human
Method: We used subset classification of Epstein-Barr virus (EBV) in chronic fatigue (CFS). We (1) performed (Group 1) a blinded-random placebo-controlled trial of valacyclovir in EBV CFS subset, and (2) followed (Group 2) this EBV subset for thirty-six months. Patients were given valacyclovir 14.3 mg per kg every 6 hours. The validated Energy Index point score (EI) assessing physical functional capacity, Holter monitor, multigated (radionuclide) MUGA rest/stress ventriculographic examination, EBV serum IgM viral capsid antibodies (VCA), and EBV Early Antigen diffuse, (EA) were evaluated.

EBV [7] = conditions: cited from earlier work
HCMV [8] = conditions: cited from earlier work
[9] = system: human bone marrow progenitor cells and lymphocyte blastogenesis; conditions: at this dosage; cited from earlier work
HHV6 [10] = conditions: cited from earlier work; remark: listed apart in the source
EBV [11] = test: simultaneous tests, activity versus EBV compared to HCMV; format: cell-based, Epstein-Barr virus
Text: Therefore, valganciclovir was employed in CFS associated with HCMV or HHV6. Valganciclovir is efficiently absorbed as ganciclovir. It […] to human bone marrow progenitor cells and lymphocyte blastogenesis at this dosage. […] Food increases the bioavailability of both valacyclovir and valganciclovir.

HCMV [12] = conditions: cited from earlier work; remark: listed apart in the source
[13] = EBV single-virus subset (31 pts)
[14] = 1 gm doses every 6 hours, 70 kg patients
[15] = Group 2, thirty-six month follow-up

In the case of Nc1nc(O)c2ncn(COC(CO)CO)c2n1 [ganciclovir], the IC50 (HCMV [1]) is listed as 530 ± 40 nM.

In the case of CC(C)Nc1nc2cc(Cl)c(Cl)cc2n1[C@H]1O[C@@H](CO)[C@H](O)[C@@H]1O [maribavir, 1H-β-L-ribofuranoside-2-isopropylamino-5,6-dichlorobenzimidazole], the IC50 (HCMV [1]) is given as 120 ± 10 nM and the side effects [2] is given as “changes in taste and headache”.

In the case of CC(C)[C@H](N)C(=O)OCCOCn1cnc2c(=O)[nH]c(N)nc21 [valacyclovir], the clinical outcome (HCMV-EBV subset CFS) is reported as “returned to health and remain well”, the side effects (HCMV-EBV subset CFS) is reported as “No significant side effects” and the toxicity [3] is reported as “no toxicity”. The “EIPS Change” value [4, 13] was “+2”, the “effective therapeutic agent for HHV6” value (HHV6 [5]) was “not an effective therapeutic antiviral agent” and the peak acyclovir levels [6, 14] was 7.9 to 21 µg/mL. The “time of peak acyclovir levels” value [6, 14] was 90 to 120 min, the “increase in energy expenditure corresponding to EI change” value (EBV CFS subset; Group 1, after six months) was 122 kcal/day and the “increase in mean least square EI Point Score” value (EBV CFS subset; Group 1, after six months, 14.3 mg per kg every 6 hours) was “+1.12 units”. The “EI Point Scores” value (EBV CFS subset; [15]) was “increased progressively”, the “abnormal cardiac wall motion” value (EBV CFS subset; [15]) was “improved” and the “serum antibody titers to EBV VCA IgM” value (EBV CFS subset; [15]) was “decreased”. For the same molecule, the sinus tachycardias (EBV CFS subset; [15]) was “decreased”, the “minimum inhibitor concentration (MIC)” value (EBV [7]) was 1.5 to 3.0 µg/mL and the “effective therapeutic agent for HCMV” value (HCMV [8]) was “not an effective therapeutic antiviral agent”.

For CC(C)[C@H](N)C(=O)OCC(CO)OCn1cnc2c(=O)nc(N)[nH]c21 (some centres unmarked) [valganciclovir], the clinical outcome (HCMV-EBV subset CFS) is listed as “returned to health and remain well”, the side effects (HCMV-EBV subset CFS) is listed as “No significant side effects” and the “effect on human bone marrow progenitor cells and lymphocyte blastogenesis” value [9] is listed as “inhibitory”. The MIC (HHV6 [10]) was 0.15 to 0.3 µg/mL, the aminotransferases [3] was “increases in aminotransferases were observed” and the “changes in hemoglobin or platelet levels” value [3] was “no changes”. The “EIPS Change” value ([4]; EBV/HCMV subset (38 pts)) was “+1.8”, the “EIPS Change” value ([4]; EBV/HHV6 subset (14 pts)) was “+2.0” and the “EIPS Change” value ([4]; HCMV single-virus subset (15 pts)) was “+1.5”. The “EIPS Change” value ([4]; HCMV/HHV6 subset (7 pts)) was “+1.7”, the “EIPS Change” value ([4]; HHV6 single-virus subset (2 pts)) was “+2.7” and the “effective therapeutic agent for HHV6” value (HHV6 [5]) was “not effective therapeutic agents”. The “activity versus EBV as compared to HCMV” value (EBV [11]) was “one-tenth as active”, the MIC (HCMV [12]) was 0.15 to 0.3 µg/mL and the “average peak concentrations (Cmax)” value ([6]; after 0.5-1.0 gm doses) was 6100 ng/mL. The “effective therapeutic agent for HCMV” value (HCMV [8]) was “not effective therapeutic agents”.

In the case of CC(=O)OCC(CCn1cnc2cnc(N)nc21)COC(C)=O [famciclovir], the toxicity [3] is listed as “no toxicity”, the “EIPS Change” value [4, 13] is listed as “+2” and the “effective therapeutic agent for HHV6” value (HHV6 [5]) is listed as “not effective therapeutic agents”. The “effective therapeutic agent for HCMV” value (HCMV [8]) was “not effective therapeutic agents”.
